This passage reports mortality results from patent US6437184B1, “Oxime compounds, their use, and intermediates for their production” (Sumitomo Chemical Company, Limited, priority 1997, dated 2002).

This experiment relates to Cydia pomonella. Put plainly: Insecticidal test against Cydia pomonella. It is filed as in vivo. To be noted: 168 h, 100 ppm water dilution, 0.2 ml on surface of artificial diet, eggs just before hatching, after 7 days. As for the experimental part: A water dilution (100 ppm) of a test compound formulation obtained according to Formulation Example 1 was added dropwise at a volume of 0.2 ml and spread over the surface of an artificial diet having a weight of 3 g, which had been prepared in a 30 ml polyethylene cup. After air drying, placed in the cup was a piece of wax paper (about 2.5 cm square) having about 20 eggs which had been laid by Cydia pomonella and were just before hatching. Four pieces of such wax paper were used for each treatment. After 7 days, the mortality of the larvae was determined.

Molecules are shown by their SMILES.

In general, mortality refers to the share of the test organisms that died. Read a low mortality as more survivors. In the case of `CCc1cc(OCC=C(Cl)Cl)cc(CC)c1OCCCCOCC=NOCC=C(Cl)Cl` [(10), 4-(2,6-diethyl-4-(3,3-dichloro-2-propenyloxy)phenoxy)butyloxyacetaldehyde O-(3,3-dichloro-2-propenyl)oxime], the mortality at 100 µg/mL was no less than 80%.

As for `CC(C)Oc1ccc(C=NOCCCCOc2c(Cl)cc(OCC=C(Cl)Cl)cc2Cl)cc1` [(579), 4-isopropoxybenzaldehyde O-(4-(2,6-dichloro-4-(3,3-dichloro-2-propenyloxy)phenoxy)butyl)oxime], the mortality at 100 µg/mL is no less than 80%. Consider `CC(=NOCCOc1c(Cl)cc(OCC=C(Cl)Cl)cc1Cl)c1ccc(C(F)(F)F)cc1` [(549), 4′-(trifluoromethyl)acetophenone O-(2-(2,6-dichloro-4-(3,3-dichloro-2-propenyloxy)phenoxy)ethyl)oxime], for which the mortality at 100 µg/mL is no less than 80%.

With `ClC(Cl)=CCON=Cc1cccc(COc2c(Cl)cc(OCC=C(Cl)Cl)cc2Cl)c1` [(323), 3-(2,6-dichloro-4-(3,3-dichloro-2-propenyloxy)phenoxymethyl)benzaldehyde O-(3,3-dichloro-2-propenyl)oxime], the mortality at 100 µg/mL was no less than 80%. Consider `O=[N+]([O-])c1ccc(C=NOCCCCOc2c(Cl)cc(OCC=C(Cl)Cl)cc2Cl)cc1` [(578), 4-nitrobenzaldehyde O-(4-(2,6-dichloro-4-(3,3-dichloro-2-propenyloxy)phenoxy)butyl)oxime], for which the mortality at 100 µg/mL is no less than 80%. The compound `FC(F)(F)c1ccc(C=NOCCOc2c(Cl)cc(OCC=C(Cl)Cl)cc2Cl)cc1` [(550), 4-(trifluoromethyl)benzaldehyde O-(2-(2,6-dichloro-4-(3,3-dichloro-2-propenyloxy)phenoxy)ethyl)oxime] gave a mortality at 100 µg/mL of no less than 80%. Turning to `CC(C)CON=Cc1ccc(CCCOc2c(Cl)cc(OCC=C(Cl)Cl)cc2Cl)cc1` [(382), 4-(3-(2,6-dichloro-4-(3,3-dichloro-2-propenyloxy)phenoxy)propyl)benzaldehyde O-iso-butyloxime], the mortality at 100 µg/mL was no less than 80%. `CC(C)CON=Cc1cccc(COc2c(Cl)cc(OCC=C(Cl)Cl)cc2Cl)c1` [(381), 3-((2,6-dichloro-4-(3,3-dichloro-2-propenyloxy)phenoxy)methyl)benzaldehyde O-iso-butyloxime]: the mortality at 100 µg/mL is no less than 80%. As for `CCON=C(C)c1ccc(OCCCCOc2c(Cl)cc(OCC=C(Cl)Cl)cc2Cl)cc1` [(297), 4′-(4-(2,6-dichloro-4-(3,3-dichloro-2-propenyloxy)phenoxy)butyloxy)acetophenone O-ethyloxime], the mortality at 100 µg/mL is no less than 80%.

Regarding `ClC(Cl)=CCOc1cc(Cl)c(OCc2cccc(C=NOCc3ccccc3)c2)c(Cl)c1` [(324), 3-(2,6-dichloro-4-(3,3-dichloro-2-propenyloxy)phenoxymethyl)benzaldehyde O-benzyloxime], the mortality at 100 µg/mL is no less than 80%.

In the case of `CC(=NOCC=C(Br)Br)c1ccc(OCCCCOc2c(Cl)cc(OCC=C(Cl)Cl)cc2Cl)cc1` [(300), 4′-(4-(2,6-dichloro-4-(3,3-dichloro-2-propenyloxy)phenoxy)butyloxy)acetophenone O-(3,3-dibromo-2-propenyl)oxime], the mortality at 100 µg/mL was no less than 80%. Next, `ClC(Cl)=CCOc1cc(Cl)c(OCCCCCCON=C2CCSCC2)c(Cl)c1` [(575), tetrahydrothiopyran-4-one O-(6-(2,6-dichloro-4-(3,3-dichloro-2-propenyloxy)phenoxy)hexyl)oxime]: no less than 80%.

With `CCCON=Cc1cccc(COc2c(Cl)cc(OCC=C(Cl)Cl)cc2Cl)c1` [(379), 3-((2,6-dichloro-4-(3,3-dichloro-2-propenyloxy)phenoxy)methyl)benzaldehyde O-propyloxime], the mortality at 100 µg/mL was no less than 80%. Next, `ClC(Cl)=CCOc1cc(Cl)c(OCCCC=NOCc2ccccc2)c(Cl)c1` [(27), 4-(2,6-dichloro-4-(3,3-dichloro-2-propenyloxy)phenoxy)butanal O-benzyloxime]: no less than 80%.
